These results are taken from patent US5196410A, “Transdermal flux enhancing compositions” (priority 1991, dated 1993).

The conditions of data set [1]: cited from earlier work.
The format of data set [2] is in vitro ADME, porcine. The protocol: Samples were removed periodically from the receiver side of the diffusion cell, mixed with a Z0 scintillation cocktail (Scintisol, Isolabs, Inc., Akron, OH) and counted for several minutes in a liquid scintillation counter (Model Mark III-6881, Tracor Analytical, Elk Grove Village, IL). Following an initial lag time of about 6 hours, the amount of
salicylic acid appearing in the receiver side was linear with time for the duration of the experiment (routinely 24 to 48 hours). […] This value, when divided by the specific acitivity of salicyclic acid in the saturated solution (approximately 300 dpm/mg) and the area of exposed skin (0.2 cm^2), yielded the flux (mg/cm^2/ hr). Samples removed from the donor side at the beginning and end of the experiment contained, within error, the same amount of salicylic acid. Thus, constant concentration of the permeant was maintained on the donor side throughout the experiment.

Data set [3] in a line: Saturation concentration of drug in vehicle.
A short description of data set [4]: Infrared spectra of fatty acid treated porcine stratum corneum. Conditions: C-H antisymmetric stretching, stratum corneum treated with […] fatty acid in ethanol, 30% (w/w) water. The protocol:
(§1) Stratum corneum sheets were prepared from porcine skin by trypsin treatment. Thus, full thickness porcine skin samples were dermatomed to 350 μm thickness and spread, stratum corneum side up, on filter paper saturated with 0.5% crude trypsin in phosphate buffered saline at pH 7.4 (Sorensen's buffer). After several hours at 37° C. the stratum corneum was peeled away, washed in soybean trypsin inhibitor, water and air dried. Samples were stored desiccated at room temperature until used. Prior to use, dry skin samples of known weight were incubated for two hours in an 0.15M solution of the appropriate fatty acid in ethanol, the samples were then washed for ten seconds in ethanol, spread on wire mesh, dried over a desiccant and the dry sample reweighed. The stratum corneum samples were then held for several days in a chamber at 22° C., 95% relative humidity, during which the stratum corneum samples equilibrated to a water content of 30% (w/w).
Infrared spectra were obtained with a Fourier Transform Infrared Spectrometer^4 (FTIR) equipped with a liquid nitrogen cooled mercury-cadmium telluride detector. In order to prevent water loss, hydrated samples were sealed between zinc sulfide windows while maintained at 22° C., 95% relative humidity. Sealed samples were placed in the spectrometer where an average of 127 scans were obtained in about six minutes for each of the fatty acid treatments. The digitized data were transferred to a computer (Apple IIe) for determination of frequency and bandwidth of the C--H antisymmetric stretching absorbance. Due to the digital nature of the FTIR instrument, absorbance and frequency data exist only in discrete increments. With the instrument used, the exact value of any frequency point could only be determined with a precision not greater than 2.7 cm^-1. The peak frequency was estimated with much greater precision, however, using a center of gravity algorithm for digitized data reported by Cameron et al., Applied Spectr., 36 245-250 (1982).

Data set [5] in a line: Differential scanning calorimetry of fatty acid treated porcine stratum corneum. Particulars: stratum corneum treated with […] fatty acid in ethanol, 30% (w/w) water. The protocol: as §1
The differential scanning calorimeter^5 was used at a scan rate of 0.75° C./minute. Duplicate samples from each of the above FTIR experiments were combined for DSC measurements. Alternately, stratum corneum samples of known weight (about 20 mg) were treated with each fatty acid in the same manner described above. Treated samples were hydrated for several days at 95% R.H., 22° C. and reweighed.
A general note: In DSC, transitions show as peaks or steps in heat flow.

Setting [6] is: saturated salicylic acid in ethanol with […] of the fatty acid, 32° C.

In brackets after ≈: the same amount, converted by molar mass. Counter-ions that a name gives are not always drawn. Like-named read-outs stand apart in the source and are kept apart here.

Regarding `CCCCCCCCCCCCN1CCCCCC1=O` [Azone, 1-dodecylazacycloheptan-2-one], the “ability to enhance percutaneous penetration” value in data set [1] (Stoughton, Arch. Derm.) is on record as “ability to enhance percutaneous penetration”. Further, the “enhancement of dermal penetration” value in data set [1] (flurbiprofen in propylene glycol and other solvents) is “enhance dermal penetration”.
As usually defined, the solubility is the concentration that dissolves in the medium under given conditions. As to `O=C(O)c1ccccc1O` [Salicylic acid, salicylic acid], the initial lag time result in data set [2] (salicylic acid in receiver, 32° C.) is listed as “about 6 hours”. The “Flux of Salicylic Acid” value in data set [2] (saturated salicylic acid in ethanol, no fatty acid (ethanol control), 32° C.) is on record as 1.31 mg/cm^2 /hr. In addition, in data set [3] (ethanol, organic solvent or mixture), the solubility amounted to 310 mg/mL (≈ 2240 mM).
In data set [4], `CCCCCC/C=C/CCCCCCCCCC(=O)O` [trans-vaccenic, trans-vaccenic acid] gave a Peak IR Frequency of 2920 cm⁻¹. Moreover, the “DSC Tm (temperature of the transition maximum)” value (from here on “DSC Tm”) in data set [5] was determined as 61.0 °C. Also, the “Flux of Salicylic Acid” value in data set [2] (setting [6]) was determined as 1.11 mg/cm^2 /hr.
For the compound `CCCCCCCCCCC/C=C/CCCCC(=O)O` [Petroseladic], the “Peak IR Frequency” value in data set [4] was found to be 2919.0 cm⁻¹. In addition, in data set [5], the “DSC Tm” value was 62.0 °C. In addition, the “Flux of Salicylic Acid” value in data set [2] is listed as 0.97 mg/cm^2 /hr.
Regarding `CCCCCCCCCCCCCCCCCC(=O)O` [Stearic, stearic acid], the “Peak IR Frequency” value in data set [4] was 2918.0 ± 0.4 cm⁻¹; in data set [4] (listed as stearic acid), 2918 to 2919 cm⁻¹. For the same compound, the “DSC Tm” value in data set [5] was 62.5 ± 1.0 °C. Moreover, the “Flux of Salicylic Acid” value in data set [2] (setting [6]) came to 1.21 mg/cm^2 /hr.
For `COc1cc2nc(N3CCN(C(=O)C4COc5ccccc5O4)CC3)nc(N)c2cc1OC` (stereo not shown) [doxazosin mesylate], the solubility in data set [3] (30% ethanol/acetate buffer, pH 5, organic solvent or mixture) came to 8.95 mg/mL.
Turning to `CCCCCCCC/C=C/CCCCCCCC(=O)O` [Elaidic, elaidic acid], the “Peak IR Frequency” value in data set [4] was 2919.4 cm⁻¹. Also, the “DSC Tm” value in data set [5] was 61.5 °C. Moreover, in data set [2], the “Flux of Salicylic Acid” value stood at 2.35 mg/cm^2 /hr.
